Measured values as given in US12612441B2, “Polypeptide and therapeutic uses thereof” (Vitalixir (Beijing) Co., Ltd, priority 2019, dated 2026).

What follows are substances tested on db/db mice (assay: Blood glucose lowering in db/db mice (Example 12)). Details: db/db male mice, 35 nmol/kg subcutaneous single dose, 0-10 hours, AUC, vs PBS control; FIG. 9.
Type: in vivo
Experimental: The feeding conditions of db/db mice were the same as described in Example 7. The db/db male mice (GemPharmatech, 7 weeks old) had one-week to acclimate to the environmental conditions of the test facility. Three days before the test (−3 day˜−1 day) baseline blood glucose and body weight were recorded. The mice were randomly grouped based on three-day blood glucose and body weight, with 6 mice in each group. Mice were injected subcutaneously with PBS (5 ml/kg, control group) or peptide compounds 42, 115, 178 (35 nmol/kg) at 10:00 in the morning. Blood was collected at 0 hour before drug administration, and 1.5, 4, 7, and 10 hours after administration, and blood glucose was measured using a OneTouch glucose meter (Johnson & Johnson) and test strips. By using time as the abscissa and the blood glucose value at different time points as the ordinate blood glucose curves were drawn, and the areas under the curve (AUC) were calculated to compare the hypoglycemic effects and duration of action of the peptide compounds.

Q: How did the blood glucose turn out when “Y(aib)EGTFTSDLSI(aib)LEKEAVRLFIEWLLAG-NH2 (YXEGTFTSDLSIXLEKEAVRLFIEWLLAG; Aib; C-terminal amide; MOD_RES (2)..(2) X=aminoisobutyric aicd; MOD_RES (13)..(13) X=aminoisobutyric aicd; MOD_RES (29)..(29) AMIDATION, C-termianl amidation) [Compound 42]” was run?
A: The blood glucose was “significantly reduced blood glucose”.

Q: With “Y(aib)EGTFTSDLSI(aib)LEKEAVRLFIEWLLAGGPS-NH2 (YXEGTFTSDLSIXLEKEAVRLFIEWLLAGGPS; Aib; C-terminal amide; MOD_RES (2)..(2) X=aminoisobutyric aicd; MOD_RES (13)..(13) X=aminoisobutyric aicd; MOD_RES (32)..(32) AMIDATION, C-termianl amidation) [Compound 178]” as the substance, how does the blood glucose read?
A: Its blood glucose is “significantly reduced blood glucose”.

Q: Which blood glucose does the source give for “Y(aib)EGTFTSDLSI(aib)LEKEAVRLFIEWLLAGGPSSGA-NH2 (YXEGTFTSDLSIXLEKEAVRLFIEWLLAGGPSSGA; Aib; C-terminal amide; MOD_RES (2)..(2) X=aminoisobutyric aicd; MOD_RES (13)..(13) X=aminoisobutyric aicd; MOD_RES (35)..(35) AMIDATION, C-termianl amidation) [Compound 115]” here?
A: The blood glucose was “significantly reduced blood glucose”.
